In US20260035363A1, “COMPOUNDS AND METHODS OF USE THEREOF AS ANTIBACTERIAL AGENTS” (priority 2019, published 2026):
Converted amounts (≈) assume the structure as drawn. Where two headings read alike, the source gives them in different places.

Assays:
Format in all cases: cell-based
[1] = tested on: mitochondrial protein synthesis in HepG2 cells; assay: Mitochondrial protein synthesis assay (COX-I to SDH-A ratio, In Cell ELISA); conditions: 4 days, ratio of COX-I to SDH-A levels, read-out: MPS IC50
Experimental: Mitochondrial Protein Synthesis Assay
Inhibition of mitochondrial protein synthesis was assessed in HepG2 cells by comparing the levels of two subunits of oxidative phosphorylation enzyme complexes, subunit I of Complex IV (COX-I) and the 70 kDa subunit of Complex II (SDH-A). COX-I is mitochondrial DNA encoded and SDH-A is nuclear DNA encoded. HepG2 cells were seeded in 96-well collagen coated plates at 8,000 cells per well and exposed to 2-fold serial dilutions of compounds from 100 μM to 6.25 μM. Microtiter plates were incubated for approximately 5 replication cycles (4 days) prior to assessment of protein levels using a kit as described by the manufacturer (ab110217 MitoBiogenesis In Cell ELISA Kit, Abcam, Cambridge, MA). Inhibition of mitochondrial protein synthesis was expressed as a ratio of COX-1 to SDH-A levels.

[2] = tested on: Mycobacterium tuberculosis (Mtb-GFP; H37Rv pMSP12::GFP); assay: microbe, parasite or virus in culture; conditions: 168 h, pH 6.8, read-out: Mtb Glu MITC95, glucose carbon source, pH 6.8, 7-day growth, GFP fluorescence, lowest concentration inhibiting 95% of growth
[3] = tested on: Mycobacterium tuberculosis (Mtb-GFP; H37Rv pMSP12::GFP); assay: microbe, parasite or virus in culture; conditions: 168 h, pH 6.8, read-out: Mtb Cho MITC95, cholesterol carbon source, pH 6.8, 7-day growth, GFP fluorescence, lowest concentration inhibiting 95% of growth

CN=S1(=O)CCC(F)(c2c(F)cc(C3=NO[C@@H](Cn4ccnn4)C3)cc2F)CC1 (single isomer, unassigned) [Example 6]
IC50 ([1]; Homo sapiens, HepG2, 96 h): > 100 µM
MIC [2]: 1.56 µM (≈ 0.667 µg/mL)
MIC [3]: 1.56 µM (≈ 0.667 µg/mL)

CN=S1(=O)CCC(F)(c2c(F)cc(C3=NO[C@@H](Cn4ccnn4)C3)cc2F)CC1 (single isomer, unassigned) [Example 7]
IC50 [1]: > 100 µM

CN=S1(=O)CCC(F)(c2c(F)cc(C3=NO[C@@H](CNC(=O)OC)C3)cc2F)CC1 (single isomer, unassigned) [Example 8]
IC50 ([1]; Homo sapiens, HepG2, 96 h): > 100 µM
MIC [2]: 3.12 µM (≈ 1.35 µg/mL)
MIC [3]: 3.12 µM (≈ 1.35 µg/mL)

CN=S1(=O)CCC(F)(c2c(F)cc(C3=NO[C@@H](CNC(=O)OC)C3)cc2F)CC1 (single isomer, unassigned) [Example 9]
IC50 [1]: > 100 µM

O=S1(=O)CCC(F)(c2c(F)cc(C3=NO[C@@H](Cn4ccnn4)C3)cc2F)CC1 [Example 1, 4-[2,6-Difluoro-4-[(5R)-5-(triazol-1-ylmethyl)-4,5-dihydroisoxazol-3-yl]phenyl]-4-fluoro-thiane 1,1-dioxide]
IC50 ([1]; Homo sapiens, HepG2, 96 h): 93 µM
MIC [2]: 1.2 µM (≈ 0.497 µg/mL)
MIC [3]: 1.2 µM (≈ 0.497 µg/mL)

COC(=O)NC[C@H]1CC(c2cc(F)c(C3(F)CCS(=O)(=O)CC3)c(F)c2)=NO1 [Example 2, Methyl N-[[(5R)-3-[3,5-difluoro-4-(4-fluoro-1,1-dioxo-thian-4-yl)phenyl]-4,5-dihydroisoxazol-5-yl]methyl]carbamate]
IC50 ([1]; Homo sapiens, HepG2, 96 h): > 100 µM
MIC [2]: 1.6 µM (≈ 0.673 µg/mL)
MIC [3]: 1.6 µM (≈ 0.673 µg/mL)

CN1CC(C)(S(=O)(=O)c2ccc(-c3ccc(C4=NO[C@@H](Cn5ccnn5)C4)cc3F)cc2)C1 [Example 3, (5R)-3-[4-[4-(1,3-Dimethylazetidin-3-yl)sulfonylphenyl]-3-fluoro-phenyl]-5-(triazol-1-ylmethyl)-4,5-dihydroisoxazole]
IC50 ([1]; Homo sapiens, HepG2, 96 h): 6.2 µM
MIC [2]: 0.12 µM (≈ 0.0563 µg/mL)
MIC [3]: 0.14 µM (≈ 0.0657 µg/mL)

COC(=O)NC[C@H]1CC(c2cc(F)c(N3CCS(=O)(=O)CC3)c(F)c2)=NO1 [Example 4, Methyl N-[[(5R)-3-[4-(1,1-dioxo-1,4-thiazinan-4-yl)-3,5-difluoro-phenyl]-4,5-dihydroisoxazol-5-yl]methyl]carbamate]
IC50 ([1]; Homo sapiens, HepG2, 96 h): > 100 µM
MIC [2]: 3.12 µM (≈ 1.26 µg/mL)
MIC [3]: 3.12 µM (≈ 1.26 µg/mL)

O=S1(=O)CCN(c2c(F)cc(C3=NO[C@@H](Cn4ccnn4)C3)cc2F)CC1 [Example 5, 4-(2,6-Difluoro-4-{(5R)-5-[(1H-1,2,3-triazol-1-yl)methyl]-4,5-dihydro-1,2-oxazol-3-yl}phenyl)-1λ^6-thiomorpholine-1,1-dione]
MIC [2]: 3.12 µM (≈ 1.24 µg/mL)
MIC [3]: 3.12 µM (≈ 1.24 µg/mL)

CN1CC(C)(C(F)(F)c2ccc(-c3ccc(C4=NO[C@@H](Cn5ccnn5)C4)cc3F)cc2)C1 [Example 10, 1-{[(5R)-3-{4′-[(1,3-Dimethylazetidin-3-yl)(difluoro)methyl]-2-fluoro[1,1′-biphenyl]-4-yl}-4,5-dihydro-1,2-oxazol-5-yl]methyl}-1H-1,2,3-triazole]
IC50 ([1]; Homo sapiens, HepG2, 96 h): 22 µM
MIC [2]: 0.19 µM (≈ 0.0865 µg/mL)
MIC [3]: 0.19 µM (≈ 0.0865 µg/mL)

CN1CC(S(=O)(=O)c2ccc(-c3ccc(C4=NO[C@@H](CNS(C)(=O)=O)C4)cc3F)cc2)C1 [Example 11, N-({(5R)-3-[2-Fluoro-4′-(1-methylazetidine-3-sulfonyl)[1,1′-biphenyl]-4-yl]-4,5-dihydro-1,2-oxazol-5-yl}methyl)methanesulfonamide]
IC50 ([1]; Homo sapiens, HepG2, 96 h): > 100 µM
MIC [2]: 0.975 µM (≈ 0.47 µg/mL)
MIC [3]: 1.17 µM (≈ 0.563 µg/mL)

CC1(c2nnc3cc(-c4ccc(C5=NO[C@@H](Cn6ccnn6)C5)cc4F)ccn23)CNC1 [Example 12, 7-(2-Fluoro-4-{(5R)-5-[(1H-1,2,3-triazol-1-yl)methyl]-4,5-dihydro-1,2-oxazol-3-yl}phenyl)-3-(3-methylazetidin-3-yl)[1,2,4]triazolo[4,3-a]pyridine]
IC50 ([1]; Homo sapiens, HepG2, 96 h): > 100 µM
MIC [2]: 0.78 µM (≈ 0.337 µg/mL)
MIC [3]: 0.78 µM (≈ 0.337 µg/mL)

CN1CC(S(=O)(=O)c2ccc(-c3ccc(C4=NO[C@@H](CO)C4)cc3F)cc2)C1 [Example 13, [(5R)-3-[3-Fluoro-4-[4-(1-methylazetidin-3-yl)sulfonylphenyl]phenyl]-4,5-dihydroisoxazol-5-yl]methanol]
IC50 ([1]; Homo sapiens, HepG2, 96 h): 24 µM
MIC [2]: 1 µM (≈ 0.404 µg/mL)
MIC [3]: 1.2 µM (≈ 0.485 µg/mL)

COC(=O)NC[C@H]1CC(c2ccc(-c3ccc(S(=O)(=O)C4(C)CN(C)C4)cc3)c(F)c2)=NO1 [Example 14, Methyl N-[[(5R)-3-[4-[4-(1,3-dimethylazetidin-3-yl)sulfonylphenyl]-3-fluoro-phenyl]-4,5-dihydroisoxazol-5-yl]methyl]carbamate]
IC50 ([1]; Homo sapiens, HepG2, 96 h): 42 µM
MIC [2]: 0.12 µM (≈ 0.0571 µg/mL)
MIC [3]: 0.12 µM (≈ 0.0571 µg/mL)

CN1CC(F)(C(F)(F)c2ccc(-c3ccc(C4=NO[C@@H](Cn5ccnn5)C4)cc3F)cc2)C1 [Example 15, (5R)-3-[4-[4-[Difluoro-(3-fluoro-1-methyl-azetidin-3-yl)methyl]phenyl]-3-fluoro-phenyl]-5-(triazol-1-ylmethyl)-4,5-dihydroisoxazole]
IC50 ([1]; Homo sapiens, HepG2, 96 h): 4.3 µM
MIC [2]: 0.035 µM (≈ 0.0161 µg/mL)
MIC [3]: 0.055 µM (≈ 0.0253 µg/mL)

Cc1nnc2cc(-c3c(F)cc(C4=NO[C@@H](Cn5ccnn5)C4)cc3F)ccn12 [Example 16, (5R)-3-[3,5-Difluoro-4-(3-methyl-[1,2,4]triazolo[4,3-a]pyridin-7-yl)phenyl]-5-(triazol-1-ylmethyl)-4,5-dihydroisoxazole]
IC50 ([1]; Homo sapiens, HepG2, 96 h): 5.4 µM
MIC [2]: 0.39 µM (≈ 0.154 µg/mL)
MIC [3]: 0.59 µM (≈ 0.233 µg/mL)

CN1CC(C)(S(=O)(=O)c2ccc(-c3ccc(C4=NO[C@@H](CNC(=O)OC5CC5)C4)cc3F)cc2)C1 [Example 17, Cyclopropyl N-[[(5R)-3-[4-[4-(1,3-dimethylazetidin-3-yl)sulfonylphenyl]-3-fluoro-phenyl]-4,5-dihydroisoxazol-5-yl]methyl]carbamate]
MIC [2]: 0.39 µM (≈ 0.196 µg/mL)
MIC [3]: 0.39 µM (≈ 0.196 µg/mL)

CC(=O)NC[C@H]1CC(c2ccc(-c3ccc(S(=O)(=O)C4(C)CN(C)C4)cc3)c(F)c2)=NO1 [Example 18, N-[[(5R)-3-[4-[4-(1,3-Dimethylazetidin-3-yl)sulfonylphenyl]-3-fluoro-phenyl]-4,5-dihydroisoxazol-5-yl]methyl]acetamide]
IC50 ([1]; Homo sapiens, HepG2, 96 h): 13 µM
MIC [2]: 0.39 µM (≈ 0.179 µg/mL)
MIC [3]: 0.39 µM (≈ 0.179 µg/mL)

CS(=O)(=O)NC[C@H]1CC(c2ccc(-c3ccc(S(C)(=O)=O)cc3)c(F)c2)=NO1 [Example 19, N-({(5R)-3-[2-Fluoro-4′-(methanesulfonyl)[1,1′-biphenyl]-4-yl]-4,5-dihydro-1,2-oxazol-5-yl}methyl) methanesulfonamide]
IC50 ([1]; Homo sapiens, HepG2, 96 h): > 100 µM
MIC [2]: 6.25 µM (≈ 2.67 µg/mL)
MIC [3]: 9.38 µM (≈ 4 µg/mL)

N#Cc1ccc(-c2ccc(C3=NO[C@@H](COC(N)=O)C3)cc2F)cn1 [Example 20, {(5R)-3-[4-(6-Cyanopyridin-3-yl)-3-fluorophenyl]-4,5-dihydro-1,2-oxazol-5-yl}methyl carbamate]
IC50 ([1]; Homo sapiens, HepG2, 96 h): 7.2 µM
MIC [2]: 0.39 µM (≈ 0.133 µg/mL)
MIC [3]: 0.19 µM (≈ 0.0647 µg/mL)

CN1CC(C)(S(=O)(=O)c2ccc(-c3ccc(C4=NO[C@@H](CO)C4)cc3F)cc2)C1 [Example 21, {(5R)-3-[4′-(1,3-Dimethylazetidine-3-sulfonyl)-2-fluoro[1,1′-biphenyl]-4-yl]-4,5-dihydro-1,2-oxazol-5-yl}methanol]
IC50 ([1]; Homo sapiens, HepG2, 96 h): > 100 µM
MIC [2]: 1.56 µM (≈ 0.653 µg/mL)
MIC [3]: 1.56 µM (≈ 0.653 µg/mL)

CN1CC(C)(S(=O)(=O)c2ccc(-c3c(F)cc(C4=NO[C@@H](Cn5ccnn5)C4)cc3F)cc2)C1 [Example 22, 1-({(5R)-3-[4′-(1,3-Dimethylazetidine-3-sulfonyl)-2,6-difluoro[1,1′-biphenyl]-4-yl]-4,5-dihydro-1,2-oxazol-5-yl}methyl)-1H-1,2,3-triazole]
IC50 ([1]; Homo sapiens, HepG2, 96 h): 25 µM
MIC [2]: 0.29 µM (≈ 0.141 µg/mL)
MIC [3]: 0.49 µM (≈ 0.239 µg/mL)

CC1(S(=O)(=O)c2ccc(-c3ccc(C4=NO[C@@H](Cn5ccnn5)C4)cc3F)cc2)CNC1 [Example 23, 1-({(5R)-3-[2-Fluoro-4′-(3-methylazetidine-3-sulfonyl)[1,1′-biphenyl]-4-yl]-4,5-dihydro-1,2-oxazol-5-yl}methyl)-1H-1,2,3-triazole]
IC50 ([1]; Homo sapiens, HepG2, 96 h): 16 µM
MIC [2]: 1.56 µM (≈ 0.711 µg/mL)
MIC [3]: 0.78 µM (≈ 0.355 µg/mL)

CN1CC(C)(S(=O)(=O)c2ccc(-c3c(F)cc(C4=NO[C@@H](Cn5ccnn5)C4)cc3F)cn2)C1 [Example 24, 5-(2,6-Difluoro-4-{(5R)-5-[(1H-1,2,3-triazol-1-yl)methyl]-4,5-dihydro-1,2-oxazol-3-yl}phenyl)-2-(1,3-dimethylazetidine-3-sulfonyl)pyridine]
IC50 ([1]; Homo sapiens, HepG2, 96 h): 76 µM
MIC [2]: 3.12 µM (≈ 1.52 µg/mL)
MIC [3]: 3.12 µM (≈ 1.52 µg/mL)

CN=S1(=O)CCC(F)(c2c(F)cc(C3=NO[C@@H](CNC(C)=O)C3)cc2F)CC1 (stereo partly drawn) [Example 30, N-{[(5R)-3-{3,5-Difluoro-4-[4-fluoro-1-(methylimino)-1-oxo-1λ^6-thian-4-yl]phenyl}-4,5-dihydro-1,2-oxazol-5-yl]methyl}acetamide]
IC50 [1]: > 100 µM

N=S1(=O)CCC(F)(c2c(F)cc(C3=NO[C@@H](Cn4ccnn4)C3)cc2F)CC1 (stereo partly drawn) [Example 39, 4-(2,6-Difluoro-4-{(5R)-5-[(1H-1,2,3-triazol-1-yl)methyl]-4,5-dihydro-1,2-oxazol-3-yl}phenyl)-4-fluoro-1-imino-1λ^6-thian-1-one]
IC50 [1]: > 100 µM
